The values that follow come from article PMC3510433, “Adamantyl carboxamides and acetamides as potent human 11β-hydroxysteroid dehydrogenase type 1 inhibitors” (Bioorganic & Medicinal Chemistry, 2012).

Marks after values point to notes of the source that are not given here.

Series [1] deals with T1, human 11β-HSD1 (Homo sapiens, UniProt P28845).
T1 construct: expressed in transfected cells; host or cells: HEK-293 (human), stably transfected
Nature of the series: 11β-HSD1 inhibition, human HEK-293 cell based assay (SPA). To be noted: for inhibition at 1 µM: HEK293, read-out: Percentage of inhibition measured at 1 μM; for 11β-HSD1 inhibitory activity (in words): at 1 μM where stated. As for the experimental part:
11β-HSD1 inhibition was measured in intact human HEK-293 cells to reveal the true inhibitory activity. Differences in observed effects for different compounds may reflect combinatorial factors including the ability to penetrate the cell membrane, the stability within the cell and the binding ability to the enzyme.
The cell-based assays were conducted on the human HEK-293 cell line stably transfected with the HSD11B1 gene.[28] 11β-HSD1 activity was determined by measuring the amount of tritiated product formed using a scintillation proximity assay (SPA).
Cells were incubated in 96-well micro-plates in the presence of tritiated cortisone substrate and the assay plates contained internal high and low controls to allow calculation of percentage inhibition. Each well of a 96-well culture plate was seeded with human 11β-HSD1 overexpressed HEK293 cells in 100 μL medium. When the cells were 80% confluent, the medium was removed from each well then 100 μL of fresh, serum-free, medium containing ^3H-cortisone (22 nM) and test compound in 1% DMSO was added. The control wells were also dispensed. […] The plate was incubated at 37 °C for 2 h, after which 50 μL of medium was removed from each well and transferred to a microplate containing 100 μL of a pre-incubated mixture of anti-cortisol antibody and SPA bead. The mixture was incubated with gentle shaking until equilibrium was reached, before transferring to a scintillation counter to establish the enzyme activity in each sample.
The compounds were initially tested at a concentration of 1 μM. Those compounds showing over 70% inhibition of 11β-HSD1 at 1 μM were subjected to an IC50 measurement. A Merck compound 544 was used as the reference compound in the assay (IC50 = 50 ± 20 nM).[19] The IC50 values are reported as the mean value of 3 measurements with variance less than 20%. IC50 values were calculated from the dose-response curve using Microsoft Excel add-in XLfit with a Four Parameter Logistic nonlinear regression model.

[2] abbreviates: 1 μM, HEK-293 cells transfected with HSD11B1.
The mark [3] stands for this setting: HEK-293 cells stably transfected with HSD11B1, mean of 3 measurements.

T1 sequence (P28845 whole entry): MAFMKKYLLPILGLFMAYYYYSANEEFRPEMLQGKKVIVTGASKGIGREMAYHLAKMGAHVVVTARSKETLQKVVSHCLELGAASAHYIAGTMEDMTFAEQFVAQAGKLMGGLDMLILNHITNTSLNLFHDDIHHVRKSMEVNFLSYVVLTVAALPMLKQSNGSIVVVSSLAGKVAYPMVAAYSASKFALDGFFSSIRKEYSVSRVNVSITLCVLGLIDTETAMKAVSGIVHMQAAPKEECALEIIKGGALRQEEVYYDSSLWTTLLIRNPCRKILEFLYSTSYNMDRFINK

`CN(Cc1ccc(Cl)s1)C(=O)C12CC3CC(CC(C3)C1)C2` [Compound 11, N-((5-Chlorothiophen-2-yl)methyl)-N-methyladamantane-1-carboxamide]: the melting point – broadly, the temperature, or range, at which the solid turns liquid – was 92 to 94 °C. In series [1] (setting [2]), the inhibition (commonly the percentage by which the read-out fell short of the control) at 1 µM amounted to 29%. Also, the “11β-HSD1 inhibitory activity (in words)” value in series [1] is “weak inhibition”.
For the molecule `CN(Cc1cccs1)C(=O)C1(c2ccc(Cl)cc2)CC1` [Compound 42, 1-(4-Chlorophenyl)-N-methyl-N-(thio-phen-2-ylmethyl) cyclopropanecarbox-amide], the figures for the concentration for half-maximal inhibition (IC50) in series [1] (HEK-293 cells) and in series [1] (setting [3]) were approximately 1600 nM and 1550 nM, respectively. Besides, the “fold loss of activity in comparison with 41” value in series [1] (vs compound 41) is approximately 5.5 fold.
As to `CN(Cc1ccco1)C(=O)C12CC3CC(CC(C3)C1)C2` [Compound 13], the IC50 – broadly, the concentration that gives 50% inhibition – in series [1] (setting [3]) was found to be 249 nM.
Regarding `CC(=O)Nc1cccc(CN(C)C(=O)C23CC4CC(CC(C4)C2)C3)c1` [Compound 21, N-(3-Acetamidobenzyl)-N-methyl-adamantane-1-carboxamide], the melting point was in the range of 109 to 111 °C. In series [1] (setting [2]), the inhibition at 1 µM was found to be 22%.
Turning to `Cc1ccsc1CN(C)C(=O)C12CC3CC(CC(C3)C1)C2` [Compound 6, N-Methyl-N-((3-methylthiophen-2-yl)methyl)adamantane-1-carboxamide], the melting point lay within 72 to 73.5 °C. In series [1] (setting [3]), it took 275 nM to reach half-maximal inhibition (IC50). The “11β-HSD1 inhibitory activity (in words)” value in series [1] is recorded as “retains nearly the same activity as parent compound 3”.
`CN(Cc1cccs1)C(=O)C1(c2ccc(Cl)cc2)CCCC1` [Compound 44, 1-(4-Chlorophenyl)-N-methyl-N-(thio-phen-2-ylmethyl)cyclopentanecarbox-amide] gave a melting point of 58 to 60 °C. This molecule yielded an IC50 in series [1] (setting [3]) of 2200 nM.
In turn, `O=C(NCc1ccccn1)C12CC3CC(CC(C3)C1)C2` [Compound 26, N-(Pyridin-2-ylmethyl)adamantane-1-carboxamide] returned a melting point of 91 to 93.5 °C. Also, in series [1] (setting [2]), the inhibition at 1 µM came to 45%.
In series [1] (setting [3]), `CN(Cc1cccs1)C(=O)C1(C)CCCCC1` [Compound 40, N,1-Dimethyl-N-(thiophen-2-ylmethyl)cyclohexanecarboxamide] showed an IC50 of 3600 nM.
Take `CN(Cc1cccnc1)C(=O)C12CC3CC(CC(C3)C1)C2` [Compound 24, N-Methyl-N-(pyridin-3-ylmethyl)-adamantane-1-carboxamide]: the melting point fell in the range of 57 to 59.5 °C. Also, in series [1] (setting [2]), the inhibition at 1 µM is 57%.
As for `C1CCc2nnc(C34CC5CC(CC(C5)C3)C4)n2CC1` [Merck compound 544, reference compound], the 50% inhibitory concentration (IC50) in series [1] (setting [3]) came to 50 ± 20 nM.
The molecule `CN(Cc1ccsc1)C(=O)C12CC3CC(CC(C3)C1)C2` [Compound 12] yielded an IC50 in series [1] (setting [3]) of 125 nM.
For `O=C(CC12CC3CC(CC(C3)C1)C2)NCc1ccccn1` [Compound 38, 2-(Adamantan-1-yl)-N-(pyridin-2-yl-methyl)acetamide], the “Percentage of inhibition measured at 1 μM” value in series [1] (setting [2]) was 26% ^a.
`CN(Cc1ccnn1C)C(=O)C12CC3CC(CC(C3)C1)C2` [Compound 18, N-Methyl-N-((1-methyl-1H-pyrazol-5-yl)-methyl)adamantane-1-carboxamide] displayed a melting point of 102 to 103.5 °C. In addition, the inhibition at 1 µM in series [1] (setting [2]) amounted to 34%.
The molecule `O=C(NCCc1cccnc1)C12CC3CC(CC(C3)C1)C2` [Compound 32, N-(2-(Pyridin-3-yl)ethyl)adamant-ane-1-carboxamide] displayed a melting point of 83 to 85 °C. Further, the inhibition at 1 µM in series [1] (setting [2]) came to 1%.
With `CN(Cc1cccnc1)C(=O)CC12CC3CC(CC(C3)C1)C2` [Compound 37, 2-(Adamantan-1-yl)-N-methyl-N-(pyridin-3-ylmethyl)acetamide], the melting point fell in the range of 67 to 68.5 °C. Besides, in series [1] (setting [2]), the inhibition at 1 µM was determined as 67%.
As to `CN(Cc1nccn1C)C(=O)C12CC3CC(CC(C3)C1)C2` [Compound 17, N-Methyl-N-((1-methyl-1H-imidazol-2-yl)methyl)adamantane-1-carboxamide], the melting point lay within 175 to 176 °C. In addition, the inhibition at 1 µM in series [1] (setting [2]) stood at 24%.
Turning to `O=C(CC12CC3CC(CC(C3)C1)C2)NCc1cccs1` [Compound 33, 2-(Adamantan-1-yl)-N-(thiophen-2-ylmeth-yl)acetamide], the melting point lay within 117 to 119 °C. Also, in series [1] (setting [2]), the inhibition at 1 µM worked out at 66%.
Regarding `Cc1ccc(CN(C)C(=O)C23CC4CC(CC(C4)C2)C3)s1` [Compound 10, N-Methyl-N-((5-methylthiophen-2-yl)-methyl)adamantane-1-carboxamide], the melting point is 83 to 85.5 °C. In addition, in series [1] (setting [2]), the inhibition at 1 µM worked out at 32%. The “11β-HSD1 inhibitory activity (in words)” value in series [1] is reported as “weak inhibition”.
In the case of `CN(Cc1ccsc1)C(=O)CC12CC3CC(CC(C3)C1)C2` [Compound 34, 2-(Adamantan-1-yl)-N-methyl-N-(thio-phen-3-ylmethyl)acetamide], the melting point was 117 to 119 °C. For the same molecule, it took 349 nM to reach half-maximal inhibition in series [1] (setting [3]) (IC50). The “fold reduction in potency compared to 12” value in series [1] (acetamide vs carboxamide 12) is given as “greater than 2 fold”.
In series [1] (setting [3]), `CN(CCc1cccs1)C(=O)C12CC3CC(CC(C3)C1)C2` [Compound 28] had an IC50 of 448 nM.
As for `Cn1cccc1CNC(=O)CC12CC3CC(CC(C3)C1)C2` [Compound 36, 2-(Adamantan-1-yl)-N-[(1-methyl-1H-pyrrol-2-yl)methyl]acetamide], the melting point is 92 to 95 °C. Besides, half-maximal inhibition in series [1] (setting [3]) (IC50) required 2880 nM.
For `CN(Cc1cccc(N)c1)C(=O)C12CC3CC(CC(C3)C1)C2` [Compound 20, N-(3-Aminobenzyl)-N-methyladam-antane-1-carboxamide], the melting point lay in the range of 105 to 106.5 °C. Further, in series [1] (setting [3]), it took 118 nM to reach half-maximal inhibition (IC50).
Molecule `Cc1csc(CN(C)C(=O)C23CC4CC(CC(C4)C2)C3)c1` [Compound 8, N-Methyl-N-((4-methylthiophen-2-yl)-methyl)adamantane-1-carboxamide] gave a melting point of 87 to 88 °C. Besides, in series [1] (setting [2]), the inhibition at 1 µM was determined as 55%. In series [1], the “11β-HSD1 inhibitory activity (in words)” value was “weak inhibition”.
In turn, `Cn1cccc1CNC(=O)C12CC3CC(CC(C3)C1)C2` [Compound 16, N-((1-Methyl-1H-pyrrol-2-yl)meth-yl)-adamantane-1-carboxamide] returned a melting point of 117 to 119 °C. The half-maximal inhibitory concentration (IC50) in series [1] (setting [3]) was found to be 1700 nM.
In turn, `O=C(NCc1cccs1)C12CC3CC(CC(C3)C1)C2` [Compound 5] showed a half-maximal inhibitory concentration (IC50) in series [1] (setting [3]) of 403 nM. In other words, the sub-micromolar range.
In series [1] (setting [3]), `CN(Cc1cccs1)C(=O)C1(c2ccc(Cl)cc2)CCC1` [Compound 43, 1-(4-Chlorophenyl)-N-methyl-N-(thio-phen-2-ylmethyl)cyclobutanecarbox-amide] registered a 50% inhibitory concentration (IC50) of 385 nM.
In turn, `Cc1cccc(CN(C)C(=O)C23CC4CC(CC(C4)C2)C3)n1` [Compound 27, N-Methyl-N-((6-methylpyridin-2-yl)-methyl)adamantane-1-carboxamide] gave a melting point of 76 to 77.5 °C. Also, the inhibition at 1 µM in series [1] (setting [2]) was 48%.
The molecule `O=C(NCc1ccco1)C12CC3CC(CC(C3)C1)C2` [Compound 14, N-(Furan-2-ylmethyl)adamantane-1-carboxamide] displayed a melting point of 69 to 72 °C. The inhibition at 1 µM in series [1] (setting [2]) was determined as 68%.
As for `Cc1csc(CNC(=O)C23CC4CC(CC(C4)C2)C3)c1` [Compound 9, N-((4-Methylthiophen-2-yl)methyl)-adamantane-1-carboxamide], the melting point lay in the range of 127 to 128.5 °C. The inhibition at 1 µM in series [1] (setting [2]) was determined as 8%.
In series [1] (setting [3]), `O=C(NCCc1cccs1)C12CC3CC(CC(C3)C1)C2` [Compound 29] registered an IC50 of 679 nM. This counts as sub-micromolar.
On to `CN(CCc1ccccn1)C(=O)C12CC3CC(CC(C3)C1)C2` [Compound 30, N-Methyl-N-(2-(pyridin-2-yl)ethyl)-adamantane-1-carboxamide], for which the melting point was in the range of 64 to 65 °C. This molecule gave an IC50 in series [1] (setting [3]) of 165 nM.
For the molecule `O=C(NCCc1ccccn1)C12CC3CC(CC(C3)C1)C2` [Compound 31, N-(2-(Pyridin-2-yl)ethyl)adamant-ane-1-carboxamide], the melting point lay in the range of 76 to 79 °C. Moreover, the 50% inhibitory concentration (IC50) in series [1] (setting [3]) worked out at 379 nM.
In turn, `CN(Cc1cccn1C)C(=O)CC12CC3CC(CC(C3)C1)C2` [Compound 35, 2-(Adamantan-1-yl)-N-methyl-N-[(1-methyl-1H-pyrrol-2-yl)methyl]acetamide] came in with a melting point of 75 to 76.5 °C. The IC50 in series [1] (setting [3]) came to 655 nM. The “fold loss of inhibitory activity compared with 15” value in series [1] (acetamide vs carboxamide 15) was approximately 6 fold.
Regarding `O=C(NCc1cccnc1)C12CC3CC(CC(C3)C1)C2` [Compound 25, N-(Pyridin-3-ylmethyl)adamantane-1-carboxamide], inhibition in series [1] (setting [3]) was half-maximal at 676 nM (IC50).
On to `Cc1csc(CN(C)C(=O)C23CC4CC(CC(C4)C2)C3)n1` [Compound 19, N-Methyl-N-((4-methylthiazol-2-yl)-methyl)adamantane-1-carboxamide], for which, in series [1] (setting [2]), the inhibition at 1 µM came out at 31%.
